Laboratory results published in patent US20060172023A1, “Use of pinolenic acid” (LODERS CROKLAAN B.V., priority 2005, published 2006).

Test system: enteroendocrine STC1-1 cell line
Experiment: In-vitro relative CCK release from enteroendocrine cells (Example 4, RIA)
Type: cell-based
Settings: 100 μM in free fatty acid form, 1 hour; for Relative amount of CCK released: measured in 6-fold
Protocol: The relative CCK release by a number of different compounds was determined in vitro an in-vitro trial to measure the effect of various free fatty acids on CCK release from intestinal cells.
Cells were routinely passaged upon reaching 70-80% confluency by washing the cell layer with PBS and incubating with a solution of trypsin-EDTA. Plating density of 2×10^6 cells by 75 cm^2 was used for routine subculture.
STC1 cells were seeded into 6-well culture plates and incubated with control culture medium, with or without the tested agents, for 1 hour. All agents were tested at a 100 μM concentration in the free fatty acid form. Since fatty acids were diluted into ethanol the effect of ethanol was tested and indicated the baseline CCK levels. […] Effects of bombesin was used as positive control. At the end of incubation the supernatant was collected, centrifuged and immediately frozen at −20° C. for RIA.
Cell viability was checked by microscopic analysis, analyzing DNA content which was measured by fluorometry after extraction of the culture cell contents, and in addition LDH release was measured.
CCK release was measured using a standard CCK RIA and effects of fatty acids were measured in 6-fold.

SMILES	Ability to induce CCK (in words)	Relative amount of CCK released	Level of CCK relative to negative control capric acid
CCCC/C=C/C=C/C=C\CCCCCCCC(=O)O [Alpha-eleostearic acid 18:3, Alpha-eleostearic acid]	good inducers of CCK	212	
CC/C=C\C/C=C\C/C=C\CCCCCCCC(=O)O [Alpha-linolenic acid 18:3, Alpha-linolenic acid]	good inducers of CCK	177	
CCCCCCCCCC(=O)O [Capric acid]		43	
CCCCC/C=C\C/C=C\C/C=C\CCCCC(=O)O [Gamma-linolenic acid 18:3, Gamma-linolenic acid]	good inducers of CCK	140	
CCCCCC=CC/C=C\CCCCCCCC(=O)O [Linoleic acid 18:2, cis-9,12 octadecadienoic acid]	not able to induce high amounts of CCK	68	about 2 fold
CCCCCCCC/C=C\CCCCCCCC(=O)O [Oleic acid 18:1, cis-9 octadecenoic acid]	not able to induce high amounts of CCK	90	about 2 fold
CCCC\C=C/C=C/C=C\CCCCCCCC(=O)O [Punicic acid 18:3, Punicic acid]	good inducers of CCK	320	
CC/C=C\C/C=C\C/C=C\CCCC/C=C\CCCC(=O)O [juniperonic acid]	not able to induce high amounts of CCK		about 2 fold
CCCCC/C=C\C/C=C\CCCC/C=C\CCCC(=O)O [sciadonic acid]	not able to induce high amounts of CCK		about 2 fold
CCCCCCCCC=CCC/C=C\CCCC(=O)O [taxoleic acid, cis-5,9 octadecadienoic acid]	not able to induce high amounts of CCK		about 2 fold
